# Results taken from ChEMBL document CHEMBL4627329, “Regioselective synthesis and evaluation of 2-amino 3-cyano chromene-chrysin hybrids as potential anticancer agents” (Bioorg Med Chem Lett, 2020).
# Active and inactive are the calls of the source. The rule behind the calls is not given here.
# How the values were obtained:
# [1] = test system: K562; test: Antiproliferative activity against human K562 cells assessed as inhibition of cell proliferation incubated for 48 hrs by MTT assay; format: functional, cell-based; settings: K562, 48 h
# [2] = test system: A549; test: Antiproliferative activity against human A549 cells assessed as inhibition of cell proliferation incubated for 48 hrs by MTT assay; format: functional, cell-based; settings: A549, 48 h
# [3] = test system: PC-3; test: Antiproliferative activity against human PC3 cells assessed as inhibition of cell proliferation incubated for 48 hrs by MTT assay; format: functional, cell-based; settings: PC-3, 48 h
# [4] = test system: NCI-H1299; test: Antiproliferative activity against human NCI-H1299 cells assessed as inhibition of cell proliferation incubated for 48 hrs by MTT assay; format: functional, cell-based; settings: NCI-H1299, 48 h
# [5] = test system: K562; test: Induction of apoptosis in human K562 cells at assessed as live cells at 10 uM measured after 24 hrs by AnnexinV-FITC/propidium iodide staining based flow cytometry (reference value: 96 %); format: functional
# [6] = test system: K562; test: Induction of apoptosis in human K562 cells at assessed as early apoptotic cells at 20 uM measured after 24 hrs by AnnexinV-FITC/propidium iodide staining based flow cytometry (reference value: 1.45 %); format: functional
# [7] = test system: K562; test: Induction of apoptosis in human K562 cells at assessed as early apoptotic cells at 5 uM measured after 24 hrs by AnnexinV-FITC/propidium iodide staining based flow cytometry (reference value: 1.45 %); format: functional
# [8] = test system: K562; test: Induction of apoptosis in human K562 cells measured after 24 hrs by AnnexinV-FITC/propidium iodide staining based flow cytometry; format: functional, cell-based
# [9] = test system: K562; test: Induction of apoptosis in human K562 cells at assessed as late apoptotic cells at 10 uM measured after 24 hrs by AnnexinV-FITC/propidium iodide staining based flow cytometry (reference value: 2.06 %); format: functional
# [10] = test system: K562; test: Induction of apoptosis in human K562 cells at 5 to 20 uM measured after 24 hrs by AO-EB staining based fluorescence microscopy analysis; format: functional, cell-based
# [11] = test system: MRC5; test: Cytotoxicity against human MRC5 cells assessed as inhibition of cell proliferation incubated for 48 hrs by MTT assay; format: cell-based; settings: MRC5, 48 h
# [12] = test system: K562; test: Induction of apoptosis in human K562 cells at assessed as necrotic cells at 10 uM measured after 24 hrs by AnnexinV-FITC/propidium iodide staining based flow cytometry (reference value: 0.518 %); format: functional
# [13] = test system: K562; test: Induction of apoptosis in human K562 cells at assessed as necrotic cells at 20 uM measured after 24 hrs by AnnexinV-FITC/propidium iodide staining based flow cytometry (reference value: 0.518 %); format: functional
# [14] = test system: K562; test: Induction of apoptosis in human K562 cells at assessed as live cells at 20 uM measured after 24 hrs by AnnexinV-FITC/propidium iodide staining based flow cytometry (reference value: 96 %); format: functional
# [15] = test system: K562; test: Induction of apoptosis in human K562 cells assessed as downregulation of Bcl-2 protein measured after 24 hrs by Western blot analysis; format: functional, cell-based
# [16] = test system: K562; test: Induction of apoptosis in human K562 cells at assessed as necrotic cells at 5 uM measured after 24 hrs by AnnexinV-FITC/propidium iodide staining based flow cytometry (reference value: 0.518 %); format: functional
# [17] = test system: K562; test: Cell cycle arrest in human K562 cells assessed as increase in cell population at G1 phase at 5 uM measured after 24 hrs by flow cytometry analysis; format: functional, cell-based
# [18] = test system: K562; test: Cell cycle arrest in human K562 cells assessed as decrease in cell population at S phase at 5 uM measured after 24 hrs by flow cytometry analysis; format: functional, cell-based
# [19] = test system: K562; test: Induction of apoptosis in human K562 cells at assessed as live cells at 5 uM measured after 24 hrs by AnnexinV-FITC/propidium iodide staining based flow cytometry (reference value: 96 %); format: functional
# [20] = test system: K562; test: Induction of apoptosis in human K562 cells at assessed as early apoptotic cells at 10 uM measured after 24 hrs by AnnexinV-FITC/propidium iodide staining based flow cytometry (reference value: 1.45 %); format: functional
# [21] = test system: K562; test: Induction of apoptosis in human K562 cells assessed as upregulation of Bax protein expression measured after 24 hrs by Western blot analysis; format: functional, cell-based
# [22] = test system: K562; test: Induction of apoptosis in human K562 cells at assessed as late apoptotic cells at 5 uM measured after 24 hrs by AnnexinV-FITC/propidium iodide staining based flow cytometry (reference value: 2.06 %); format: functional
# [23] = test system: K562; test: Induction of apoptosis in human K562 cells at assessed as late apoptotic cells at 20 uM measured after 24 hrs by AnnexinV-FITC/propidium iodide staining based flow cytometry (reference value: 2.06 %); format: functional
SMILES,IC50 [1] [µM],IC50 [2] [µM],IC50 [3] [µM],IC50 [4] [µM],also measured
N#CC1=C(N)Oc2cc3oc(-c4ccccc4)cc(=O)c3c(O)c2C1c1ccc(Cl)cc1 (stereo unspecified),12.4,> 50,> 50,33.1,
CC(C)(C)c1ccc(C2C(C#N)=C(N)Oc3cc4oc(-c5ccccc5)cc(=O)c4c(O)c32)cc1 (stereo unspecified),47.1,> 50,> 50,> 50,
N#CC1=C(N)Oc2cc3oc(-c4ccccc4)cc(=O)c3c(O)c2C1c1ccccc1Cl (stereo unspecified),14.4,> 50,> 50,43.4,
Cc1ccc(C2C(C#N)=C(N)Oc3cc4oc(-c5ccccc5)cc(=O)c4c(O)c32)cc1 (stereo unspecified),14.8,48.5,28.4,28.5,
N#CC1=C(N)Oc2cc3oc(-c4ccccc4)cc(=O)c3c(O)c2C1c1cccc([N+](=O)[O-])c1 (stereo unspecified),15.6,31.9,41.3,40.8,
COc1cccc(C2C(C#N)=C(N)Oc3cc4oc(-c5ccccc5)cc(=O)c4c(O)c32)c1OC (stereo unspecified),16.8,> 50,> 50,> 50,
N#CC1=C(N)Oc2cc3oc(-c4ccccc4)cc(=O)c3c(O)c2C1c1ccccc1F (stereo unspecified),28.1,44,43.2,45.3,
COc1ccccc1C1C(C#N)=C(N)Oc2cc3oc(-c4ccccc4)cc(=O)c3c(O)c21 (stereo unspecified),20.2,> 50,> 50,> 50,
N#CC1=C(N)Oc2cc3oc(-c4ccccc4)cc(=O)c3c(O)c2C1c1ccc(F)cc1 (stereo unspecified),14.5,15.4,26.1,> 50,
N#CC1=C(N)Oc2cc3oc(-c4ccccc4)cc(=O)c3c(O)c2C1c1ccccc1 (stereo unspecified),43,31.6,46.9,> 50,
N#CC1=C(N)Oc2cc3oc(-c4ccccc4)cc(=O)c3c(O)c2C1c1ccccc1Br (stereo unspecified),48.8,> 50,> 50,> 50,
N#CC1=C(N)Oc2cc3oc(-c4ccccc4)cc(=O)c3c(O)c2C1c1cccc(Br)c1 (stereo unspecified),6.41,> 50,36.8,24.2,Activity [5]: 77.6%; Activity [6]: 27.6%; Activity [7]: 5.87%; Activity [8]: Dose-dependent effect; Activity [9]: 5.23%; Activity [10]: Active; IC50 [11]: > 100 µM; Activity [12]: 2.84%; Activity [13]: 2.44%; Activity [14]: 62.4%; Activity [15]: Dose-dependent effect; Activity [16]: 1.06%; Activity [17]: Dose-dependent effect; Activity [18]: Dose-dependent effect; Activity [19]: 90.2%; Activity [20]: 14.4%; Activity [21]: Dose-dependent effect; Activity [22]: 2.85%; Activity [23]: 7.58%
Cc1ccc(C2C(C#N)=C(N)Oc3cc4oc(-c5ccccc5)cc(=O)c4c(O)c32)c(C)c1 (stereo unspecified),19.7,> 50,> 50,42,
COc1ccc(-c2cc(=O)c3c(O)c4c(cc3o2)OC(N)=C(C#N)C4c2ccc(F)cc2)c(OC)c1 (stereo unspecified),45.2,> 50,> 50,44.8,
COc1ccc(C2C(C#N)=C(N)Oc3cc4oc(-c5ccccc5)cc(=O)c4c(O)c32)cc1 (stereo unspecified),38.1,> 50,> 50,40.1,
O=c1cc(-c2ccccc2)oc2cc(O)cc(O)c12 [CHRYSIN],> 50,> 50,> 50,> 50,IC50 [11]: > 100 µM
N#CC1=C(N)Oc2cc3oc(-c4ccccc4)cc(=O)c3c(O)c2C1c1cccc(F)c1 (stereo unspecified),18.6,20.5,30.4,40.8,
COc1c2c(c(O)c3c(=O)cc(-c4ccccc4)oc13)C(c1ccc(C)cc1)C(C#N)=C(N)O2 (stereo unspecified),> 50,> 50,> 50,> 50,
N#CC1=C(N)Oc2cc3oc(-c4ccccc4)cc(=O)c3c(O)c2C1c1ccc(Br)cc1 (stereo unspecified),10.1,> 50,46.8,18.8,
